PubChem BioAssay AID1552 (Sanford-Burnham Center for Chemical Genomics, 2009)
Active and inactive are the calls of the source. The rule behind the calls is not given here.

Each compound was assayed against Ubiquitin-conjugating enzyme E2 N (Homo sapiens) (UniProt P61088) (assay: UBE2N binders by NMR, biophysical, purified protein (AID 1552)). Settings: NMR binding to purified UBE2N.
Ubiquitin-conjugating enzyme E2 N (Homo sapiens), sequence (P61088 whole entry, looked up): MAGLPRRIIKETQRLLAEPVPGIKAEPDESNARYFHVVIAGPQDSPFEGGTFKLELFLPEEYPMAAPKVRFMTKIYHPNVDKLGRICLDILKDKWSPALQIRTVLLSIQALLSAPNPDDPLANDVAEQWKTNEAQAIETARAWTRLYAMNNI
In the case of `Cc1cc(C)n(-c2ccc(Cl)nn2)n1`, the Kd is reported as > 4 mM (inactive). In the case of `COc1c(F)c(F)c(-c2csc(N)n2)c(F)c1F`, the Kd is reported as > 4 mM (inactive). For `CN1CCCn2c1nc1c2c(=O)[nH]c(=O)n1C`, the Kd was > 4 mM (inactive). With `CN1CCC2(CC1)CC1CC3C=CC1(CN2)O3` (stereo unspecified) the Kd was > 4 mM (inactive). In the case of `Cc1nc(-c2ccccc2)ncc1CO`, the Kd is reported as > 4 mM (inactive). With `Cc1ccc(SCc2cc(=O)n3[nH]c(C)nc3n2)cc1` the Kd was > 4 mM (inactive). In the case of `C=C[C@@](C)(O)CCC1C(=C)C[C@H](OC(C)=O)C2C(C)(C)CCCC12C` (stereo partly specified), the Kd is reported as > 4 mM (inactive). For `COC(=O)C1=CO[C@@H](O[C@@H]2O[C@H](CO)[C@@H](O)[C@H](O)[C@H]2O)[C@@H]2[C@@H](C)[C@@H](O)C[C@H]12`, the Kd was > 4 mM (inactive). In the case of `CNC(=O)Cn1c(=O)n(C)c2ccccc21`, the Kd is reported as > 4 mM (inactive). With `Cc1ccc(-c2nc(N)n(C(=O)c3cccnc3)n2)cc1` the Kd was > 4 mM (inactive). With `CC(=O)Nc1cccc(NC(=O)c2cccnc2)c1` the Kd was > 4 mM (inactive). `O=c1c(-c2ccc(O)cc2)coc2cc(O)ccc12` was tested, and the Kd was > 4 mM (inactive). `CCn1nnc(NC(=O)c2cc3ccccc3o2)n1` was tested, and the Kd was > 4 mM (inactive). In the case of `CC1CCC2(OC1)OC1CC3C4CC[C@H]5C[C@@H](O)CC[C@]5(C)C4CC(=O)[C@]3(C)C1C2C` (stereo partly specified), the Kd is reported as > 4 mM (inactive). `Cc1occc1C(=O)NC1CCN(C)CC1` was tested, and the Kd was > 4 mM (inactive). With `NCc1nnnn1-c1ccccc1` the Kd was > 4 mM (inactive). `COC(=O)[C@@H]1OC(=O)C2OC23[C@@]1(C)CCC1[C@]2(C)C(C[C@H](O)[C@]13C)C(C)(C)[C@H](OC(C)=O)C[C@@H]2OC(C)=O` (stereo partly specified) was tested, and the Kd was > 4 mM (inactive). For `NC(=O)c1ccccc1NC(=O)C1CC1`, the Kd was > 4 mM (inactive). For `COc1cc2c3cc1Oc1cc(ccc1O)C[C@@H]1c4c(cc(OC)c(O)c4Oc4ccc(cc4)C[C@@H]3N(C)CC2)CC[N+]1(C)C`, the Kd was > 4 mM (inactive). `CC1=C(C(=O)Nc2ccccc2)SCCO1` was tested, and the Kd was > 4 mM (inactive). For `C/C=C/COc1nc2c(c(=O)n(C)c(=O)n2C)n1C`, the Kd was > 4 mM (inactive). For `O=C1NC(=S)N/C1=C\c1ccccc1`, the Kd was > 4 mM (inactive). `COc1cc2[nH]c(=S)n(C)c(=O)c2cc1OC` was tested, and the Kd was > 4 mM (inactive). `CC1CCN(C(=O)c2ccc(NS(C)(=O)=O)cc2)CC1` was tested, and the Kd was > 4 mM (inactive). In the case of `CNC(=O)C(=O)Nc1ccc(F)cc1`, the Kd is reported as > 4 mM (inactive). For `O=C1CCCCCN1CO`, the Kd was > 4 mM (inactive). With `COc1cccc(OC)c1C(=O)N1CCOCC1` the Kd was > 4 mM (inactive). `CC(=O)Nc1cc2c(cc1C(=O)C(C)C)OCCO2` was tested, and the Kd was > 4 mM (inactive). With `O=c1[nH]nnc2sc3c(c12)CCCC3` the Kd was > 4 mM (inactive). With `CC(=O)Nc1cc(S(=O)(=O)N(C)C)ccc1Cl` the Kd was > 4 mM (inactive). In the case of `NC(=O)c1ccc(NC(=O)c2cccnc2)cc1`, the Kd is reported as > 4 mM (inactive).
